Source: publication PMC11695783 (Frontiers in Pharmacology, 2024)
“And” between values parts separate entries of the source, which are not always exact repeats. Equal entries are not always repeated.

Key:
[1] = system: Mycoplasma pneumoniae-infected mice (lung tissue); assay: Histopathological assessment of lung tissue (HPS, response and recovery rates) in M. pneumoniae-infected mice; assay type: in vivo, BALB/c mice; design: HPS value (mean) / HPS: scale not given here; details: for HPS: individual mice, listed as TiamulinIM
Method: Adult BALB/c mice (20–22 g) were divided into a control group, a positive group, and compound 16C groups at low (20 mg/kg), medium (40 mg/kg), and high-dose (80 mg/kg) levels and oral and intramuscular tiamulin treatment groups (40 mg/kg). We formulated the above dose range based on the dose at which tiamulin was approved for injection (10–20 mg/kg) and the dose previously reported (45 mg/kg) ([EMA, 1999]; [Xiao et al., 2016]). In summary, we selected similar doses for compound 16C in vivo study. 40 mg/kg was used as an intermediate value, one-half of it as a low dose, and two times of it as a high dose. To prepare the challenge solution, logarithmic phase culture suspensions were centrifuged at 1700 g for 10 min, and the pellets were suspended in sterile PBS to obtain 1 × 10^9 CFU/mL. Before the challenge, mice were anesthetized with tribromoethanol (250 mg/kg, IP). Mice in the control groups were intratracheally inoculated with sterile PBS, whereas mice in the other groups were intratracheally challenged with 50 μL (1 × 10^9 CFU/mL) M. pneumoniae suspension once a day for 3 days. Compound 16C and tiamulin (tiamulin-IM group) dissolved using the method mentioned in pharmacokinetic studies, and the tiamulin fumarate soluble powder was dissolved in ddH2O for oral administration. After the final challenge, antibiotics were administered at low, medium, and high-dose levels (see above) at 10 a.m. and 10 p.m. daily for 4 consecutive days. Normal saline containing 5% DMSO and 5% Tween-80 was administered as control and positive groups by thigh intramuscular injection. To compare the efficacy of compound 16C and tiamulin under the same route of administration, we used the original tiamulin for intramuscular administration in the same formulation. On the other hand, tiamulin fumarate soluble powder, approved for oral administration to treat animal mycoplasma diseases in China, was administered to mice by gavage. Based on a clinical study of lefamulin in community-acquired bacterial pneumonia (CABP), subjects were administered twice a day and the 96 ± 24 h of starting treatment was an essential point for early clinical response (ECR) ([Paukner et al., 2022]). We therefore stopped treatment at 96 h and sampled at 192 h to explore whether the disease worsened after cessation of treatment. Bronchoalveolar lavage fluid (BALF) and lungs were collected at 0, 96, 192 h (Samples of 0 h were collected before starting treatment, and mice were fed ad libitum without drug treatment during 96–192 h) after the first dose, BALF for cytokine and cytological analysis and lung for histopathological evaluation.
Lung tissues were collected at 0, 96, and 192 h following drug administration. Lungs were collected from 6 mice in each group at 96 h and 13–15 mice in each group at 192 h. In addition, the lungs of 8 untreated infected mice were taken at 0 h as initial controls. Lung tissues were fixed in 4% paraformaldehyde, and whole-mount sections of paraffin-embedded lungs were stained with hematoxylin and eosin (H&E). The histopathologic score (HPS) was determined according to published protocols by a single pathologist who was unaware of the treatment status and groups of the animals ([Cimolai et al., 1992]). The HPS was based on individual grading of peribronchiolar/bronchial infiltrate, bronchiolar/bronchial luminal exudate, perivascular infiltrate, and parenchymal pneumoniae.

[2] = system: Mycoplasma pneumoniae strain M129 (ATCC 29342); assay: Time-kill curves; assay type: cell-based; design: M. pneumoniae count in time-kill curve: unit not given here
How it was run: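 Strain grown at 37 °C, 5% CO2 in modified SP-4 broth (pH 7.4, 20% FBS). Cultures incubated 72 h, sampled every 12 h, 10-fold serially diluted and plated on SP-4 agar; colonies counted after 7 d. Three repeats.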

[3] = M. pneumoniae-infected mice, IM, n=13-15
[4] = M. pneumoniae-infected mice, PO, n=13-15
[5] = tiamulin 40 mg/kg IM, from HPS at 192 h

C=C[C@]1(C)C[C@@H](OC(=O)CSCCN(CC)CC)[C@]2(C)[C@H](C)CC[C@]3(CCC(=O)[C@H]32)[C@@H](C)[C@@H]1O [tiamulin, Tiamulin, reference compound]
Recovery [1, 3]: 35.7%
Response [1, 3]: 100%
Recovery [1, 4]: 6.67%
Response [1, 4]: 86.67%
HPS value (mean) ([1]; tiamulin 40 mg/kg IM, 96 h): 1
HPS ([1]; tiamulin 40 mg/kg IM, 96h): 2.5 and 0.5 and 1
HPS ([1]; tiamulin 40 mg/kg IM, 192h): 0.5 and 0 and 1
Recovery [1, 5]: 35.7%
Response [1, 5]: 100%
M. pneumoniae count in time-kill curve ([2]; 1×MIC, time 0): 6.339
M. pneumoniae count in time-kill curve ([2]; 1×MIC, time 12): 5.698
M. pneumoniae count in time-kill curve ([2]; 1×MIC, time 24): 6.253
M. pneumoniae count in time-kill curve ([2]; 1×MIC, time 36): 5.423
M. pneumoniae count in time-kill curve ([2]; 1×MIC, time 48): 4.896
M. pneumoniae count in time-kill curve ([2]; 1×MIC, time 60): 5.29
M. pneumoniae count in time-kill curve ([2]; 1×MIC, time 72): 4.787
M. pneumoniae count in time-kill curve ([2]; 2×MIC, time 0): 6.339
M. pneumoniae count in time-kill curve ([2]; 2×MIC, time 12): 6.4123
M. pneumoniae count in time-kill curve ([2]; 2×MIC, time 24): 6.433
M. pneumoniae count in time-kill curve ([2]; 2×MIC, time 36): 4.77
M. pneumoniae count in time-kill curve ([2]; 2×MIC, time 48): 4.196
M. pneumoniae count in time-kill curve ([2]; 2×MIC, time 60): 3.827
M. pneumoniae count in time-kill curve ([2]; 2×MIC, time 72): 3.91
M. pneumoniae count in time-kill curve ([2]; 4×MIC, time 0): 6.339
M. pneumoniae count in time-kill curve ([2]; 4×MIC, time 12): 6.61
M. pneumoniae count in time-kill curve ([2]; 4×MIC, time 24): 6.296
M. pneumoniae count in time-kill curve ([2]; 4×MIC, time 36): 3.841
M. pneumoniae count in time-kill curve ([2]; 4×MIC, time 48): 3.684
M. pneumoniae count in time-kill curve ([2]; 4×MIC, time 60): 3.889
M. pneumoniae count in time-kill curve ([2]; 4×MIC, time 72): 3.638
M. pneumoniae count in time-kill curve ([2]; 8×MIC, time 0): 6.339
M. pneumoniae count in time-kill curve ([2]; 8×MIC, time 12): 6.119
M. pneumoniae count in time-kill curve ([2]; 8×MIC, time 24): 6.148
M. pneumoniae count in time-kill curve ([2]; 8×MIC, time 36): 3.952
M. pneumoniae count in time-kill curve ([2]; 8×MIC, time 48): 3.772
M. pneumoniae count in time-kill curve ([2]; 8×MIC, time 60): 3.839
M. pneumoniae count in time-kill curve ([2]; 8×MIC, time 72): 3.776
M. pneumoniae count in time-kill curve ([2]; 16×MIC, time 0): 6.339
M. pneumoniae count in time-kill curve ([2]; 16×MIC, time 12): 6.238
M. pneumoniae count in time-kill curve ([2]; 16×MIC, time 24): 5.56
M. pneumoniae count in time-kill curve ([2]; 16×MIC, time 36): 4
M. pneumoniae count in time-kill curve ([2]; 16×MIC, time 48): 3.739
M. pneumoniae count in time-kill curve ([2]; 16×MIC, time 60): 3.621
M. pneumoniae count in time-kill curve ([2]; 16×MIC, time 72): 3.801
M. pneumoniae count in time-kill curve ([2]; 32×MIC, time 0): 6.339
M. pneumoniae count in time-kill curve ([2]; 32×MIC, time 12): 6.569
M. pneumoniae count in time-kill curve ([2]; 32×MIC, time 24): 5.262
M. pneumoniae count in time-kill curve ([2]; 32×MIC, time 36): 3.833
M. pneumoniae count in time-kill curve ([2]; 32×MIC, time 48): 3.266
M. pneumoniae count in time-kill curve ([2]; 32×MIC, time 60): 3.249
M. pneumoniae count in time-kill curve ([2]; 32×MIC, time 72): 3.425
M. pneumoniae count in time-kill curve ([2]; 64×MIC, time 0): 6.339
M. pneumoniae count in time-kill curve ([2]; 64×MIC, time 12): 6.625
M. pneumoniae count in time-kill curve ([2]; 64×MIC, time 24): 4.23
M. pneumoniae count in time-kill curve ([2]; 64×MIC, time 36): 3.61
M. pneumoniae count in time-kill curve ([2]; 64×MIC, time 48): 3.065
M. pneumoniae count in time-kill curve ([2]; 64×MIC, time 60): 3.16
M. pneumoniae count in time-kill curve ([2]; 64×MIC, time 72): 3.29
concentration at which bactericidal effect was achieved ([2]; static time-kill, 72 h): 64 × MIC
